Assays:
B16F10 cells = experiment: TNFα-mediated apoptosis in B16F10 cells; type: cell-based, mouse; settings: 1 μM, TNFα 100 ng/mL, 72 hours
From the text: Figure 3 LD4172 sensitizes B16F10 cells to TNFα-mediated apoptosis. A, Representative flow cytometry dot plots of apoptosis. In all four plots, viable cells are seen in the left lower quadrant (FITC-/PI-), early apoptotic cells in the right lower quadrant (FITC+/PI-), and late apoptotic cells in the right upper quadrant (FITC+/PI+). B, Representative images of PI (red) and caspase 3/7 (Cas3/7+, green) staining of B16F10 cells. Cell death assessed by PI uptake using Cytation 5 imager. C, Western blots for the expression of cleaved caspase3, cleaved caspase7, and cleaved PARP in B16F10 cells. D, Quantification of extracellular ATP level. Western blots for the expression of HMGB1 and calreticulin in B16F10 cells. E, Immunofluorescence staining of HMGB1 in B16F10 cells. B16F10 cells were treated in the presence or absence of TNFα (100 ng/mL), Z-VAD-FMK (25 μM), LD4172 (1 μM), and/or T2I (1 μM) as indicated for 72 hours. Data are representative of three independent experiments. Error bars represent SD.
Apoptosis quantification was conducted utilizing a FITC-conjugated Annexin V/PI assay kit (556547, BD Biosciences) and analyzed through flow cytometry. Briefly, 2×10^5 of B16F10 cells were seeded onto six-well plates and treated as specified for 72 hours at 37°C. Treated and untreated cells were harvested, washed with PBS, and resuspended in 100 μl of binding buffer. […]

B16F10 tumors = experiment: B16F10 syngeneic tumor model with anti-PD1; type: in vivo; settings: B16F10 tumors; 20 mg/kg i.p. daily plus anti-PD1 100 μg i.p. every three days
Description: Figure 4 LD4172 synergizes with Anti-PD1 to inhibit tumor growth. A, Plasma concentrations of LD4172 in C57BL/6J mice administered 1 mg/kg intravenously (i.v.) or 10 mg/kg intraperitoneally (i.p.) (n=4). B, Representative immunoblots of RIPK1 in different tissues of C57BL/6J mice treated with LD4172 (n=3–4). C, Densitometric analysis of RIPK1 protein levels in different tissues (n=3 or 4). D, Representative immunoblots of RIPK1 levels of B16F10 cells transduced with gRNA specific for RIPK1 or non-targetable control (sgNC). E, B16F10-RIPK1-KO tumors sensitized to anti-PD1 treatment: 3×10^5 B16F10 cells transduced with gRNA specific for RIPK1 or non-targetable control (sgNC) were inoculated into C57BL/6J mice. After seven days, mice with measurable tumors (~100 mm3) were randomly treated with or without anti-PD1 in vivo (100 μg per dose, i.p., every three days, n=8). F, Tumor growth curve of mice with B16F10 tumors treated with LD4172 and/or anti-PD1 (n=8). C57B6/J mice were subcutaneously inoculated with 3×10^5 B16F10 tumor cells. After seven days (tumor size ~ 100 mm3), mice were treated every three days with anti- PD1 (100 μg per dose, i.p.), daily with LD4172 (20 mg/kg, i.p.), a combination of LD4172 and anti-PD1 (same dose as their individual doses), or their corresponding vehicle control. G, Kaplan-Meier survival curve for all experimental groups. H, Final tumor weight (g) from F after 22d of treatment (n=8). I, Representative images of B16F10 tumors collected at the end of treatment. J, Mouse body weight (n=8). K, Tumor growth curve of mice with B16F10 tumors treated with T2I and/or anti-PD1 (n=8). The experimental conditions and treatment regimens were the same as F except using the RIPK1 kinase inhibitor T2I (20 mg/kg, i.p.) to replace LD4172. Representative data from at least three independent experiments are shown. Data are expressed as the mean ± SEM. * p<0.05; ** p<0.01; *** p<0.001, **** p<0.0001, respectively. ns, indicates no statistical significance.
To establish a syngeneic mouse model, 3× 10^5 B16F10 cells resuspended in PBS were mixed 1:1 by volume with Matrigel (354262, Corning) and subcutaneously injected into the right flank of seven-week-old wild-type female C57BL/6J mice on day 0. Treatments were started on day 7 when the tumor volume reached approximately 100 mm^3. Antibodies were administered in 100μL volumes and injected intraperitoneally every three days for the following: anti-PD1 (100 μg, BE0146, BioXcell) and anti-CD8 (500 μg, BE0004, BioXcell). The RIPK1 degrader LD4172 and RIPK1 kinase inhibitor T2I were delivered in 200 μL of vehicle solution (30% PEG400, 5% Tween-80, 5% DMSO) once daily (20 mg/kg, i.p. injection). […] Tumors were measured every three days beginning on day 7 after the challenge until death. […]

## CCn1cc(-c2ccc3c(c2)CCN3C(=O)Cc2cccc(OC(F)(F)F)c2)c2c(N)ncnc21 [T2I, reference compound]
B16F10 cells
  cell death / apoptosis in combination with TNFα: did not trigger TNFα-mediated apoptosis
B16F10 tumors
  tumor response in combination with anti-PD1: failed to sensitize B16F10 tumors to anti-PD1 treatment

From publication PMC11042424, “Development of a First-in-Class RIPK1 Degrader to Enhance Antitumor Immunity” (Research Square, 2024)
